Laboratory results published in US20200292528A1, “CELL CHEMOTAXIS ASSAYS” (The General Hospital Corporation, priority 2013, published 2020).

How the values were obtained:
neutrophils [1] = experiment: Microfluidic neutrophil chemotaxis assay, healthy donor whole blood (finger prick, venous) and isolated neutrophils; assay type: cell-based, human; details: for neutrophils recruited from finger prick whole blood (count): average of 16 attractant chambers
Experimental: Capillary blood (50 μL) was collected by pricking a finger of healthy volunteers. The blood was then pipetted into an eppendorf tube containing a mixed solution of HBSS media, heparin anti-coagulant (1.65 USP/50 μL of blood), and Hoescht stain (10 μL, 32.4 μM). […] Louis, Mo.) or Leukotriene B4 (LTB4) (Caymen Chemicals, Ann Arbor, Mich.) [100 nM] immediately after the PDMS donut-shaped device was bonded to the well plate. The chemoattractant solution also contained fibronectin [25 nM] (Sigma-Aldrich, St. Louis, Mo.) to promote neutrophil surface adhesion. The chemoattractant was pipetted into the whole blood loading chamber (WBLC) and directly around the circumference of the device. […] Afterwards, the central whole-blood loading chamber and the outside region surrounding the donut were washed thoroughly with Phosphate Buffered Saline (PBS) in each well to wash away excess chemoattractant. The wells of the plate were then filled with RPMI 1640 media and allowed to sit for a period of 15 minutes to generate stable chemoattractant gradients. […] Capillary blood (50 μL) was collected by pricking a finger of healthy volunteers. The blood was then pipetted into an eppendorf tube containing a mixed solution of HBSS media, heparin anti-coagulant (1.65 USP/50 μL of blood), and Hoescht stain (10 μL, 32.4 μM). […] For venous blood samples, 10 mL of peripheral blood was drawn from a health volunteer into tubes containing 33 US […] (Vacutainer, Becton Dickinson, Franklin Lakes, N.J.). […] To compare the whole blood results with neutrophil migration from an isolated sample, we also isolated human neutrophils from whole blood using HetaSep followed by the EasySep Human Neutrophil Enrichment Kits (STEMCELL Technologies Inc. Vancouver, Canada) following the manufacturer's protocol. […] Louis, Mo.) at a density of 40,000 cells/μL and kept at 37° C. cell until devices were properly primed. […] Directionality of primed neutrophils was quantified by counting the number of cells that followed the chemotactic gradient and turned at the bifurcation toward the chemoattractant chamber as opposed to the number of cells that exited the device to the peripheral region. Cell velocities were calculated using Image J (NIH) and data analysis with GraphPad Prism. Neutrophil migration toward different attractants (fMLP and LTB4) was also examined. […] The concentrations of the three different chemoattractants were varied from 10 nM to 50 nM to 100 nM. Solutions containing fibronectin [25 nM] and exclusive of fibronection were prepared. Finger prick blood and venous blood were obtained as described above in Example 3.

human neutrophils = experiment: Inter-species microfluidic neutrophil chemotaxis from one droplet of whole blood: human; assay type: cell-based; details: for percentage of neutrophils that migrated: 2 μL whole blood
Experimental: (§1) The microfluidic device to study mouse, rat and human neutrophil chemotaxis from one droplet of whole blood was designed with three main components: focal chemoattractant chambers (FCCs) (200×200 μm), a central whole-blood loading chamber, and migration channels containing RBC filtering regions. The filter for each migration channel included 10 short channels (Length ˜75 μm) with a 3.5 μm narrowing region (‘pinch’) connected horizontally through an approximately 200-μm-long channel to create 90° bending sections capable of trapping the RBCs to prevent them from dispersing into the rest of the migration channel. All migration channels were designed to be 12 μm wide and 3 μm high to establish only a single column of RBCs for efficient trapping while allowing active mouse, rat and human neutrophils to easily migrate through. The devices were fabricated as described above in Example 2.
(§2) For humans, 50 μL of capillary blood was collected by pricking a finger of healthy volunteers. For mice, 50 μL of capillary blood was collected by the facial vein method (Institutional animal care and use Protocol #2007N000136) requiring no anesthesia. For rats, 50 μL of venous blood was collected from the tail vein (Institutional animal care and use Protocol #2012N000034) using 1-2% Isoflurane inhalant. The blood was then pipetted into an eppendorf tube containing a mixed solution of HBSS media, heparin anti-coagulant (1.65 USP/50 μL of blood), and Hoechst stain (10 μL, 32.4 μM). The eppendorf tube was then incubated for 10 minutes at 37° C. and 5% CO2 to allow for proper staining of the nuclei.
(§3) All reagents and whole blood were pipetted into the device and there was no flow or requirement of external syringe pump. A gradient of the chemoattractant was established along the migration channels by diffusion between the chemoattractant chambers and the central loading chamber. Prior to cell loading and immediately after bonding to the well plate, donut-shaped devices were filled with the chemoattractant solution containing 25 nM of fibronectin (Sigma-Aldrich, St. Louis, Mo.). The well plate was then placed in a desiccator under vacuum to de-gas for 15 minutes to ensure proper filling of the chambers while the PDMS surface was still hydrophilic. Afterwards, the central whole-blood loading chamber and the outside region surrounding the donut were washed thoroughly in each well to establish the gradient along the migration channels. The wells of the plate were then filled with RPMI 1640 media and allowed to sit for a period of 15 minutes to generate stable chemoattractant gradients. Finally, using a gel-lading tip, 2 μL of whole blood was slowly pipetted into the central whole-blood loading chamber.
(§4) Time-lapse imaging was performed on a Nikon Eclipse Ti microscope with 10-15× magnification and a biochamber heated to 37° C. with 5% CO2 and 80% humidity. […] For each experiment, at least 50 neutrophils were manually tracked. Directionality of primed neutrophils was quantified by counting the number of cells that followed the chemotactic gradient and turned at the bifurcation toward the chemoattractant chamber as opposed to the number of cells that exited the device to the peripheral region. Cell velocities were calculated using ImageJ (NIH). Total percentage of neutrophils to migrate was estimated using a COMSOL simulation model that estimated that 30.6% of area in whole blood loading chamber from which neutrophils could migrate in experimental time to be above critical gradient concentration. For an average human experiment, this would estimate ˜277 neutrophils per well that are exposed to chemoattractant gradient.

Wistar rat neutrophils = experiment: Inter-species microfluidic neutrophil chemotaxis from one droplet of whole blood: Wistar rat; assay type: cell-based; details: for percentage of neutrophils that migrated: Wistar rat whole blood
Experimental: as §1, §2
All reagents and whole blood were pipetted into the device and there was no flow or requirement of external syringe pump. A gradient of the chemoattractant was established along the migration channels by diffusion between the chemoattractant chambers and the central loading chamber. Prior to cell loading and immediately after bonding to the well plate, donut-shaped devices were filled with the chemoattractant solution containing 25 nM of fibronectin (Sigma-Aldrich, St. Louis, Mo.). The well plate was then placed in a desiccator under vacuum to de-gas for 15 minutes to ensure proper filling of the chambers while the PDMS surface was still hydrophilic. […]
Time-lapse imaging was performed on a Nikon Eclipse Ti microscope with 10-15× magnification and a biochamber heated to 37° C. with 5% CO2 and 80% humidity. […] Directionality of primed neutrophils was quantified by counting the number of cells that followed the chemotactic gradient and turned at the bifurcation toward the chemoattractant chamber as opposed to the number of cells that exited the device to the peripheral region. Cell velocities were calculated using ImageJ (NIH). […]

mouse neutrophils = experiment: Inter-species microfluidic neutrophil chemotaxis from one droplet of whole blood: C57BL/6 and Sv129S6 mice; assay type: cell-based; details: for directionality of Sv129S6 mouse neutrophils compared with humans: Sv129S6 mouse versus human
Experimental: as §1, §2, §3, §4

neutrophils [2] = experiment: Microfluidic neutrophil chemotaxis assay, blood of a burn patient (24% TBSA) over 3 weeks; assay type: cell-based, human; details: for neutrophil accumulation counts versus healthy volunteer: three weeks post-burn
Experimental: Blood samples of 1 mL were collected from one burn patient suffering from 24% total body surface area (TBSA) burn. Procedures for fabricating the device, preparing the chemoattractant gradient, and performing time-lapse imaging were conducted as explained above with respect to examples 2-4.
Neutrophil chemotaxis was monitored over a 3 week treatment period. FIG. 10A is a plot of neutrophil migration counts in the attractant chamber with no chemoattractant gradient, with fMLP chemoattractant gradient [100 nM], and with LTB4 chemoattractant gradient [100 nM]. FIG. 10B is a plot of velocity [μm/min] of neutrophils migrating to LTB4 compared with fMLP over a three week period. FIG. 10C is a plot of directionality index of neutrophils migrating to LTB4 compared with fMLP. All graphs correspond to average cell counts across 16 attractant chambers.

[3] = 1 week after burn, 100 nM gradient, versus healthy volunteer

Molecule: fibronectin
- effect of inclusion in the chemoattractant solution on final neutrophil counts migrating towards fMLP (neutrophils [1]; 25 nM, pin prick and venous blood): does not appear to change final neutrophil counts

Molecule: CCCCC/C=C\C[C@@H](O)/C=C/C=C/C=C\[C@@H](O)CCCC(=O)O [LTB4, Leukotriene B4]
- neutrophils recruited from finger prick whole blood (count) (neutrophils [1]; 100 nM gradient, after 200 min): 39±12 cells/device
- neutrophil velocity (neutrophils [1]; finger prick whole blood): 20±7 μm/min
- percentage of neutrophils that migrated (human neutrophils): 54.0±5.6%
- percentage of neutrophils that migrated (Wistar rat neutrophils): 2.8±1.1%
- percentage of neutrophils that migrated (mouse neutrophils; C57BL/6 mouse whole blood): 52.7±24%
- directionality of Sv129S6 mouse neutrophils compared with humans (mouse neutrophils): comparable
- percentage of neutrophils that migrated (mouse neutrophils; Sv129S6 mouse whole blood): 99.5±13%
- neutrophil accumulation counts versus healthy volunteer (neutrophils [2]): in the normal range
- reduction in neutrophil velocity (neutrophils [2]; two weeks post-burn): 40%

Molecule: CSCC[C@H](NC=O)C(=O)N[C@@H](CC(C)C)C(=O)N[C@@H](Cc1ccccc1)C(=O)O [fMLP, N-formyl-methionyl-leucyl-phenylalanine]
- neutrophils recruited from finger prick whole blood (count) (neutrophils [1]; 100 nM gradient, after 200 min): 86±7 cells/device
- neutrophil accumulation numbers (neutrophils [1]; 100 nM gradient, after 3.5 hours, venous, finger prick and isolated neutrophil sources): around 135±20 cells/device
- average neutrophil migration counts in 6 separate devices (neutrophils [1]; 100 nM gradient, finger prick whole blood of one healthy donor, after 200 min): 83±12 cells
- neutrophil migration counts per chamber, average of healthy donors (neutrophils [1]; 100 nM gradient, finger prick whole blood, after 200 min, 5 out of 7 donors clustered around it): 92±35 cells
- time until neutrophils began migrating towards the gradient (neutrophils [1]; 100 nM gradient, venous and finger prick whole blood and isolated neutrophils): ≤ 20 min
- neutrophil count recruited relative to LTB4 (neutrophils [1]; 100 nM gradients, finger prick whole blood, 200 min): two-fold higher count
- neutrophil velocity (neutrophils [1]; finger prick whole blood): 19 ±6 μm/min
- directional index of neutrophils (human neutrophils): 0.85±0.06
- velocity of neutrophils towards the chemoattractant (human neutrophils): 23.4±5.4 μm/min
- percentage of neutrophils that migrated (human neutrophils): 55.8±19.8%
- percentage of neutrophils that migrated (Wistar rat neutrophils): 10.9±8.5%
- directional index of neutrophils (Wistar rat neutrophils; rat): 0.62±0.12
- velocity of neutrophils towards the chemoattractant (Wistar rat neutrophils; rat): 26.2±5.9 μm/min
- directional index of neutrophils (mouse neutrophils; C57BL/6 mouse): 0.61±0.07
- velocity of neutrophils towards the chemoattractant (mouse neutrophils; C57BL/6 mouse): 13±7.4 μm/min
- velocity of C57BL/6 neutrophils, fold lower than Sv129S6, rat or human (mouse neutrophils; C57BL/6 mouse versus Sv129S6, rat, human): ~2.5 fold
- directional index of neutrophils (mouse neutrophils; Sv129S6 mouse): 0.82±0.06
- velocity of neutrophils towards the chemoattractant (mouse neutrophils; Sv129S6 mouse): 19.7±8.7 μm/min
- reduction in directionality (neutrophils [2]; [3]): 50%
- reduction in neutrophil velocity (neutrophils [2]; [3]): 75%
- neutrophil accumulation counts versus healthy volunteer (neutrophils [2]): lower than the average healthy volunteer count
- number of cells accumulating, above the normal healthy volunteer range (neutrophils [2]; two weeks post burn, patient had fever): 15%
- reduction in neutrophil velocity (neutrophils [2]; two weeks post-burn): 60%

B1: C5a: the protein fragment C5a, neutrophil attractant (protein, UniProt P01031 678-751, looked up)
C5a anaphylatoxin: TLQKKIEEIAAKYKHSVVKKCCYDGACVNNDETCEQRAARISLGPRCIKAFTECCVVASQLRANISHKDMQLGR
modifications: C5a anaphylatoxin
notes: the protein fragment C5a, neutrophil attractant
- percentage of neutrophils activated (human neutrophils): 63.3±7.6%
- percentage of neutrophils that migrated in response to the chemoattractant in the FCC (human neutrophils): 26.8±5.9%
- percentage of neutrophils activated (mouse neutrophils; Sv129S6 mouse): 18.3±3%
- directionality of Sv129S6 mouse neutrophils compared with humans (mouse neutrophils): lower than in humans
- migration pattern of activated mouse neutrophils (mouse neutrophils; mouse): random migration
- percentage of neutrophils that migrated in response to the chemoattractant in the FCC (mouse neutrophils; mouse (Sv129S6)): 1±0.8%
